Assay results reported in patent US20100152188A1, “Novel Heterocyclic Compounds” (priority 2005, published 2010).

Experiments:
HDAC = HDAC inhibition; type: biochemical; settings: for HDAC Inhibition 1 μM: compound at 1 μM; for HDAC Inhibition 10 μM: compound at 10 μM
[1] = tested on: NCIH460, HCT116, MDAMB-231/U 251; assay: Anti-cancer screen, mean GI50 over the cell lines; type: cell-based; settings: in µM
Outline: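 HCT116, NCIH460 and U251 cells (5000/well) were seeded for 24 h, then exposed in triplicate to 0.01, 0.1, 1, 10 and 100 µM final compound for 48 h. Viability was read by MTT (3 h, absorbance 570 nm), and percent growth was calculated against untreated controls and a T0 plate read at compound addition.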

MDAMB-231/U 251 = assay: Anti-cancer screen (MTT), MDAMB-231/U 251; type: cell-based; settings: for CC50: 48 h, read-out: MDAMB-231/U 251 LC50; for GI50 / IC (TGI): 48 hours with compound, MTT, tested at 0.01-100 µM
Outline: (§1)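 Cells (5000/well) in DMEM with 10% FBS were seeded 24 h, then exposed to compounds at 0.01, 0.1, 1, 10 and 100 µM in triplicate for 48 h at 37 °C. MTT was added for 3 h, formazan dissolved in DMSO and absorbance read at 570 nm; GI50, TGI and LC50 derived from % growth versus T0.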

NCIH460 = assay: Anti-cancer screen (MTT), NCIH460; type: cell-based; settings: Homo sapiens, NCI-H460, 48 hours with compound, tested at 0.01-100 µM
Outline: as §1

HCT116 = assay: Anti-cancer screen (MTT), HCT116; type: cell-based; settings: Homo sapiens, HCT-116, 48 hours with compound, tested at 0.01-100 µM
Outline: as §1

For `Nc1ccccc1NC(=O)Cc1csc(NC(=O)OCc2ccncc2)n1` [Example 24, Pyridin-4-ylmethyl(4-{2-[(2-aminophenyl)amino]-2-oxoethyl}-1,3-thiazol-2-yl)carbamate], the “HDAC Inhibition 1 μM” value (HDAC) was 1.34, the “HDAC Inhibition 10 μM” value (HDAC) was 3.17 and the “Mean GI50” value [1] was >100. For the same molecule, the CC50 (MDAMB-231/U 251) was > 100 µM, the GI50 (MDAMB-231/U 251) was > 100 µM and the IC (TGI) (MDAMB-231/U 251) was > 100 µM. The GI50 (NCIH460) was > 100 µM, the IC (TGI) (NCIH460) was > 100 µM and the LC50 (NCIH460) was > 100 µM. The GI50 (HCT116) was > 100 µM, the IC (TGI) (HCT116) was > 100 µM and the LC50 (concentration giving 50% net cell kill relative to T0) (HCT116) was > 100 µM.
In the case of `O=C(Cc1csc(NC(=O)OCc2ccncc2)n1)NOCc1ccccc1` [Example 25, Pyridin-4-ylmethyl(4-{2-[(benzyloxy)amino]-2-oxoethyl}-1,3-thiazol-2-yl)carbamate], the “HDAC Inhibition 1 μM” value (HDAC) is reported as −0.29, the “HDAC Inhibition 10 μM” value (HDAC) is reported as 6.62 and the “Mean GI50” value [1] is reported as 80.67. The CC50 (MDAMB-231/U 251) was > 100 µM, the GI50 (MDAMB-231/U 251) was 85 µM and the IC (TGI) (MDAMB-231/U 251) was > 100 µM. The GI50 (NCIH460) was 92 µM, the IC (TGI) (NCIH460) was > 100 µM and the LC50 (NCIH460) was > 100 µM. For the same molecule, the GI50 (HCT116) was 65 µM, the IC (TGI) (HCT116) was > 100 µM and the LC50 (concentration giving 50% net cell kill relative to T0) (HCT116) was > 100 µM.
In the case of `O=C(NCc1ccc(C(=O)NO)cc1)OCc1ccsc1` [Example 27, 3-Thienylmethyl{4-[(hydroxyamino)carbonyl]benzyl}carbamate], the IC50 (HDAC) is reported as 0.58 µM, the “HDAC Inhibition 1 μM” value (HDAC) is reported as 67.65 and the “HDAC Inhibition 10 μM” value (HDAC) is reported as 81.85. The “Mean GI50” value [1] was 24.9, the CC50 (MDAMB-231/U 251) was > 100 µM and the GI50 (MDAMB-231/U 251) was > 100 µM. The IC (TGI) (MDAMB-231/U 251) was > 100 µM, the GI50 (NCIH460) was 34 µM and the IC (TGI) (NCIH460) was 64 µM. For the same molecule, the LC50 (NCIH460) was 100 µM, the GI50 (HCT116) was 7 µM and the IC (TGI) (HCT116) was 21 µM. It also gave an LC50 (concentration giving 50% net cell kill relative to T0) (HCT116) of 72 µM.
`O=C(NCc1ccc(C(=O)NO)cc1)OCc1cccs1` [Example 28, 2-Thienylmethyl{4-[(hydroxyamino)carbonyl]benzyl}carbamate] was tested, and the IC50 (HDAC) was 0.123 µM, the “HDAC Inhibition 1 μM” value (HDAC) was 50.8 and the “HDAC Inhibition 10 μM” value (HDAC) was 63.3. The “Mean GI50” value [1] was 13, the CC50 (MDAMB-231/U 251) was 70 µM and the GI50 (MDAMB-231/U 251) was 5 µM. It also gave an IC (TGI) (MDAMB-231/U 251) of 30 µM, a GI50 (NCIH460) of 30 µM and an IC (TGI) (NCIH460) of 51 µM. For the same molecule, the LC50 (NCIH460) was > 100 µM, the GI50 (HCT116) was 5 µM and the IC (TGI) (HCT116) was 15 µM. It also gave an LC50 (concentration giving 50% net cell kill relative to T0) (HCT116) of 62 µM.
In the case of `O=C(NCc1ccc(C(=O)NO)cc1)OCc1nc2ccccc2s1` [Example 30, 1,3-Benzothiazol-2-ylmethyl{4-[(hydroxyamino)carbonyl]benzyl}carbamate], the IC50 (HDAC) is reported as 0.14 µM, the “HDAC Inhibition 1 μM” value (HDAC) is reported as 84 and the “HDAC Inhibition 10 μM” value (HDAC) is reported as 84.6. The “Mean GI50” value [1] was 0.3, the CC50 (MDAMB-231/U 251) was > 100 µM and the GI50 (MDAMB-231/U 251) was 0.78 µM. For the same molecule, the IC (TGI) (MDAMB-231/U 251) was > 100 µM, the GI50 (NCIH460) was 0.02 µM and the IC (TGI) (NCIH460) was 0.05 µM. For the same molecule, the LC50 (NCIH460) was 73 µM, the GI50 (HCT116) was 0.23 µM and the IC (TGI) (HCT116) was 7 µM. The LC50 (concentration giving 50% net cell kill relative to T0) (HCT116) was 61 µM.
For `O=C(NCc1ccc(C(=O)NO)cc1)OCc1nccs1` [Example 31, 1,3-Thiazol-2-ylmethyl{4-[(hydroxyamino)carbonyl]benzyl}carbamate], the IC50 (HDAC) was 0.13 µM, the “HDAC Inhibition 1 μM” value (HDAC) was 82.6 and the “HDAC Inhibition 10 μM” value (HDAC) was 87.4. For the same molecule, the “Mean GI50” value [1] was 10.7, the CC50 (MDAMB-231/U 251) was > 100 µM and the GI50 (MDAMB-231/U 251) was 32 µM. The IC (TGI) (MDAMB-231/U 251) was > 100 µM, the GI50 (NCIH460) was 0.02 µM and the IC (TGI) (NCIH460) was 0.9 µM. For the same molecule, the LC50 (NCIH460) was 92 µM, the GI50 (HCT116) was 0.02 µM and the IC (TGI) (HCT116) was 0.97 µM. For the same molecule, the LC50 (concentration giving 50% net cell kill relative to T0) (HCT116) was 39 µM.
With `O=C(NCc1ccc(C(=O)NO)cc1)OCC1COc2ccccc2O1` (centres unmarked) [Example 32, 2,3-Dihydro-1,4-benzodioxin-2-ylmethyl {4-[(hydroxyamino)carbonyl]benzyl}carbamate] the “HDAC Inhibition 1 μM” value (HDAC) was 78.12, the “HDAC Inhibition 10 μM” value (HDAC) was 92.67 and the “Mean GI50” value [1] was 7. The CC50 (MDAMB-231/U 251) was 80 µM, the GI50 (MDAMB-231/U 251) was 11 µM and the IC (TGI) (MDAMB-231/U 251) was 45 µM. It also gave a GI50 (NCIH460) of 5 µM, an IC (TGI) (NCIH460) of 42 µM and an LC50 (NCIH460) of 95 µM. The GI50 (HCT116) was 5 µM, the IC (TGI) (HCT116) was 25 µM and the LC50 (concentration giving 50% net cell kill relative to T0) (HCT116) was > 100 µM.
`O=C(NCc1ccc(C(=O)NO)cc1)OCc1nc2ccccc2[nH]1` [Example 33, 1H-Benzimidazol-2-ylmethyl{4-[(hydroxyamino)carbonyl]benzyl}carbamate] was tested, and the IC50 (HDAC) was 0.25 µM, the “HDAC Inhibition 1 μM” value (HDAC) was 82.77 and the “HDAC Inhibition 10 μM” value (HDAC) was 92.11. The “Mean GI50” value [1] was 2.8, the CC50 (MDAMB-231/U 251) was 60 µM and the GI50 (MDAMB-231/U 251) was 3 µM. For the same molecule, the IC (TGI) (MDAMB-231/U 251) was 8 µM, the GI50 (NCIH460) was 1 µM and the IC (TGI) (NCIH460) was 68 µM. The LC50 (NCIH460) was > 100 µM, the GI50 (HCT116) was 4.5 µM and the IC (TGI) (HCT116) was 20 µM. For the same molecule, the LC50 (concentration giving 50% net cell kill relative to T0) (HCT116) was > 100 µM.
